Where two headings read alike, the source gives them in different places.
What was measured:
Type in all cases: in vivo
[1] = tested on: Plasmopara viticola (PLASVI); experiment: Downy Mildew of Grape one day protectant (1DP); details: grape (Carignane), sprayed to runoff, rate 200 ppm
Method: Final treatment volumes were obtained by adding 0.1 percent aqueous Ethomeen T25 or 0.1 percent aqueous Spraymate X77+0.1 percent wt./vol. ammonium sulfate^+. Downy Mildew of Grape (Plasmopara viticola-[…]) Vines (cultivar Carignane) were grown from seed in a soilless peat-based potting mixture “Metro-Mix 360” (W.R Grace and Co.) until the seedlings were 10-20 cm tall. These plants were then sprayed to runoff with the test compound at a rate of 200 ppm. After 24 hours the test plants were inoculated by spraying with an aqueous sporangia suspension of Plasmopara viticola ([…]). The plants were then transferred to a dew chamber for 24 hours, then to the greenhouse until disease developed on the untreated control plants.

[2] = tested on: Puccinia recondita f. sp. tritici (PUCCRT); experiment: Brown Rust of Wheat one day protectant (1DP); details: wheat (Monon), sprayed to runoff, rate 200 ppm
Method: (§1) Final treatment volumes were obtained by adding 0.1 percent aqueous Ethomeen T25 or 0.1 percent aqueous Spraymate X77+0.1 percent wt./vol. ammonium sulfate^+. Brown Rust of Wheat (Puccinia recondita f. sp. tritici-PUCCRT) (1 DP) Wheat (cultivar Monon) was grown in plastic pots (6.2 cm×8.75 cm) containing 50 percent mineral soil, 50 percent Metro-Mix 360 (W.R Grace and Co.) until the seedlings were 10-20 cm tall. These plants were then sprayed to runoff with the test compound at a rate of 200 ppm. After 24 hours the test plants were inoculated by spraying with an aqueous spore suspension of Puccinia recondita f. sp. tritici (PUCCRT). The plants were then transferred to a dew chamber for 24 hours, then to the greenhouse until disease developed on the untreated control plants.

[3] = tested on: Venturia inaequalis (VENTIN); experiment: Apple Scab curative (compound added 2 days after inoculation); details: Curative at 200 ppm
Septoria tritici SEPTTR = experiment: Curative low volume test, wheat leaf blotch; details: curative 3 days, low volume 300 L/ha
Method: Tomatoes and grapes were grown in a soil-less peat-based potting mixture (Metro-Mix 360) while wheat was propagated in a 50/50 mix of mineral soil and Metro-Mix 360.
The malonomicin sample (Compound I) used in the low volume foliar spray was prepared by dissolving the material in deionized water with the desired adjuvant concentration. (0.05 percent Spraymate X-77+0.05 percent PVA+0.1 percent ammonium sulfate+0.1 percent EDTA)
For low volume applications, compound was applied to plants at the spray volume of 300 L/ha using a track sprayer with an SS8003E spray nozzle and a spray pressure of 255 kPa with a boom height of 40 cm from test plants. For a control, the same mixture is sprayed without active ingredient (solvent control).
Curative tests (DC) were inoculated the designated day(s) prior to treatment application. Disease severity was assessed as the percentage of the total surface area of the sprayed leaves covered by disease. Percent disease control relative to the solvent control was then calculated. Phytotoxicity symptoms and severity, if present, were also recorded. Four replicate plants per treatment for low volume applications were used.
Wheat plants were inoculated using approximately 1×10^7 spores/mL. Distilled water was poured into inoculum plates and the spores were dislodged using a spatula. The spores and water were filtered through 2 layers of cheesecloth, and three drops of Tween 20 per 100 mL of solution were added as a wetter. Test plants were then placed in a walk-in dew room at 22° C., 99 percent RH for 24 hours, after which time the plants were sub-irrigated with Hoagland's solution for 30 minutes and then moved into a misting greenhouse system where they were lightly misted every 90 seconds for three days. When the three-day misting period was completed, the plants were moved to the dry area of the greenhouse and bottom-watered daily until disease was fully expressed on the solvent control (10-14 days in summer, 14-21 days in winter). During the fall and winter months, the addition of a cart hood was used post-dew room, until assessment, in order to enhance disease uniformity and expression.

[4] = tested on: Leptosphaeria nodorum (LEPTNO); experiment: Glume Blotch of Wheat one day protectant (1DP); details: wheat (Yuma), sprayed to runoff, rate 200 ppm
Method: as §1, with “Glume Blotch” for “Brown Rust”, “(Leptosphaeria nodorum-[…])” for “(Puccinia recondita f. sp. tritici-PUCCRT) (1 DP)”, “Yuma)” for “Monon)”, “Co.).” for “Co.)”, “Leptosphaeria nodorum ([…]).” for “Puccinia recondita f. sp. tritici (PUCCRT).”

[5] = tested on: Phytophthora infestans (PHYTIN); details: 1DP, tomato (rutgers), sprayed to runoff, rate 200 ppm
[6] = tested on: Puccinia recondita f. sp. tritici PUCCRT; experiment: Curative low volume test, wheat brown rust; details: low volume 300 L/ha; for PUCCRT 1DC percent disease control: curative 1 day; for PUCCRT 3DC percent disease control: curative 3 days
[7] = tested on: Venturia inaequalis (VENTIN); experiment: Apple Scab one day protectant (1DP); details: 0.1 percent Spraymate X77 + 0.1 percent ammonium sulfate
[8] = tested on: Phytophthora infestans PHYTIN; details: curative 1 day, low volume 300 L/ha, tomato

NC[C@@H]1NC(=O)C(C(=O)CC(NC(=O)[C@@H](N)CO)(C(=O)O)C(=O)O)=C1O [Compound I, {[(2S)-2-amino-3-hydroxypropanoyl]amino}{2-[(5S)-5-(aminomethyl)-4-hydroxy-2-oxo-2,5-dihydro-1H-pyrrol-3-yl]-2-oxoethyl}malonic acid]
PLASVI percent control of plant disease [1]: ++ (++ = 75-100 percent control of plant disease)
PUCCRT percent control of plant disease [2]: ++ (++ = 75-100 percent control of plant disease)
VENTIN percent control of plant disease [3]: ++ (++ = 75-100 percent control of plant disease)
SEPTTR 3DC percent disease control (Septoria tritici SEPTTR; 7.8 g ai/ha): ++ (++ = 75-100 percent control)
SEPTTR 3DC percent disease control (Septoria tritici SEPTTR; 15.6 g ai/ha): ++ (++ = 75-100 percent control)
SEPTTR 3DC percent disease control (Septoria tritici SEPTTR; 31.2 g ai/ha): ++ (++ = 75-100 percent control)
SEPTTR 3DC percent disease control (Septoria tritici SEPTTR; 62.5 g ai/ha): ++ (++ = 75-100 percent control)
SEPTTR 3DC percent disease control (Septoria tritici SEPTTR; 125 g ai/ha): ++ (++ = 75-100 percent control)
SEPTTR 3DC percent disease control (Septoria tritici SEPTTR; 250 g ai/ha): ++ (++ = 75-100 percent control)
LEPTNO percent control of plant disease [4]: + (+ = 30-74 percent control of plant disease)
PHYTIN percent control of plant disease [5]: ++ (++ = 75-100 percent control of plant disease)
PUCCRT 1DC percent disease control ([6]; 7.8 g ai/ha): − (− = 0-29 percent control of plant disease)
PUCCRT 1DC percent disease control ([6]; 15.6 g ai/ha): − (− = 0-29 percent control of plant disease)
PUCCRT 1DC percent disease control ([6]; 31.2 g ai/ha): + (+ = 30-74 percent control of plant disease)
PUCCRT 1DC percent disease control ([6]; 62.5 g ai/ha): + (+ = 30-74 percent control of plant disease)
PUCCRT 1DC percent disease control ([6]; 125 g ai/ha): ++ (++ = 75-100 percent control)
PUCCRT 1DC percent disease control ([6]; 250 g ai/ha): ++ (++ = 75-100 percent control)
PUCCRT 3DC percent disease control ([6]; 7.8 g ai/ha): − (− = 0-29 percent control of plant disease)
PUCCRT 3DC percent disease control ([6]; 15.6 g ai/ha): + (+ = 30-74 percent control of plant disease)
PUCCRT 3DC percent disease control ([6]; 31.2 g ai/ha): ++ (++ = 75-100 percent control)
PUCCRT 3DC percent disease control ([6]; 62.5 g ai/ha): ++ (++ = 75-100 percent control)
PUCCRT 3DC percent disease control ([6]; 125 g ai/ha): ++ (++ = 75-100 percent control)
PUCCRT 3DC percent disease control ([6]; 250 g ai/ha): ++ (++ = 75-100 percent control)
VENTIN percent control of plant disease ([7]; 50 ppm): ++ (++ = 75-100 percent control of plant disease)
VENTIN percent control of plant disease ([7]; 100 ppm): ++ (++ = 75-100 percent control of plant disease)
VENTIN percent control of plant disease ([7]; rate 200 ppm): + (+ = 30-74 percent control of plant disease)
PHYTIN 1DC percent disease control ([8]; 7.8 g ai/ha): − (− = 0-29 percent control of plant disease)
PHYTIN 1DC percent disease control ([8]; 15.6 g ai/ha): + (+ = 30-74 percent control of plant disease)
PHYTIN 1DC percent disease control ([8]; 31.2 g ai/ha): + (+ = 30-74 percent control of plant disease)
PHYTIN 1DC percent disease control ([8]; 62.5 g ai/ha): − (− = 0-29 percent control of plant disease)
PHYTIN 1DC percent disease control ([8]; 125 g ai/ha): + (+ = 30-74 percent control of plant disease)
PHYTIN 1DC percent disease control ([8]; 250 g ai/ha): ++ (++ = 75-100 percent control)
